Assay results taken from patent US11229633B2, “Arimoclomol formulation” (Orphazyme A/S, priority 2014, dated 2022).
“And” between values parts separate entries of the source, which are not always exact repeats. Equal values may be shown once.

Assays:
Assay type in all cases: in vitro ADME
human OCT2 [1] = target: T1, human OCT2 (Homo sapiens, UniProt O15244); assay: Uptake transporter substrate feasibility assay, OCT2; design: key to Substrate: NIO: No interaction observed
T1 construct: expressed in transfected cells; host or cells: CHO (protocol UPT-CHO-OCT2-Metf; control: parental CHO-K1)
T1 sequence (O15244 1-555): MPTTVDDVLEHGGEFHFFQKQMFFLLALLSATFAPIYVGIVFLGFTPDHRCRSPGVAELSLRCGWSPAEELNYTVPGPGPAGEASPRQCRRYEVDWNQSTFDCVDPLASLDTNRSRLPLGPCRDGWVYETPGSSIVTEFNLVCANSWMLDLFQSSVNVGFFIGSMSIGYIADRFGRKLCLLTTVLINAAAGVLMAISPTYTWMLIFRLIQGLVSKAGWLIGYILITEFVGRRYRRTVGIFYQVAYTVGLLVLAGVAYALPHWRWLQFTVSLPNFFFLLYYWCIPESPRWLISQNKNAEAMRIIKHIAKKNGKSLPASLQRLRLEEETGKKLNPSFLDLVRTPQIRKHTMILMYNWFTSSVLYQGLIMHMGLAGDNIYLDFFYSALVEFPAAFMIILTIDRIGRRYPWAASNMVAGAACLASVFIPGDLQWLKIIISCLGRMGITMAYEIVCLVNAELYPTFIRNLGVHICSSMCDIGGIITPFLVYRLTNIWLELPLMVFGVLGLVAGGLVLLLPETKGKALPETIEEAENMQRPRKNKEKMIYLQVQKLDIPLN
Experimental: (§1) Uptake experiments were performed using CHO, MDCKII, or HEK293 cells stably expressing the respective uptake transporters.
Cells were cultured at 37±1° C. in an atmosphere of 95:5 air:CO2 as described in Table 4 and were plated onto standard 24-well tissue culture plates at 2×10^5 cells/well. The uptake of the TA was determined using cells overexpressing the respective uptake transporter and control cells, at two incubation time points (2 and 20 min) and at two concentrations (1 and 10 μM) of TA to determine whether or not the TA was actively taken up into the cells.
Before the experiment, the medium was removed and the cells were washed twice with 300 μl of HK buffer (pH 7.4) (prepared from Sigma chemicals). Cellular uptake of TA into the cells was measured by adding 300 μl of HK buffer containing TA and incubating them at 37±1° C. Reactions were quenched by removing the HK buffer containing the TA and the cells were washed twice with 300 μl of HK buffer. Cells were lysed by adding 300 μl of MeOH:H2O (2:1) and incubated for 20 minutes at 4±1° C. The amount of TA in the cell lysate was determined by LC-MS/MS. The amount of protein in each well was quantified using the BCA kit for protein determination (Sigma-Aldrich, St Louis, Mo., USA). Uptake of the probe substrate in control cells provided background activity values for all data points. Incubation without reference inhibitor (solvent only) provided 100% activity values. A reference inhibitor served as positive control for inhibition.
The fold accumulation value was defined as the ratio of uptake of TA or probe substrate into transfected and control cells:
[formula] UPTTRP: accumulated amount of TA or probe substrate in transfected cells normalized by protein content [pmol/mg protein] UPTCTL: accumulated amount of TA or probe substrate in control cells normalized by protein content [pmol/mg protein]
If the fold accumulation is >2 and can be inhibited by a known inhibitor of the transporter, the TA can be considered to be a substrate of the respective transporter.

human OCT2 [2] = target: T1, human OCT2; assay: Uptake transporter inhibition assay, OCT2
Experimental: as §1
Cells were cultured at 37±1° C. in an atmosphere of 95:5 air:CO2 and were plated onto standard 96-well tissue culture plates at the cell number described in table 4.
Before the experiment, the medium was removed and the cells were washed twice with 100 μl of HK buffer at pH 7.4 (prepared from Sigma chemicals, Sigma-Aldrich, St Louis, Mo.). Uptake experiments were carried out at 37±1° C. in 50 μl of HK buffer (pH 7.4) containing the probe substrate and the TA or vehicle control (water).
After the experiment, cells were washed twice with ice cold, 100 μl of HK buffer and lysed with 50 μl of 0.1 M NaOH (1 mM CaCl2) in 5% SDS in the case of OATP1B3). Fluo-3 transport (OATP1B3) was determined by measuring fluorescence using 485 nm and 520 nm as the excitation and emission wavelengths, respectively. Radiolabelled probe substrate transport was determined by measuring an aliquot (35 μl) from each well for liquid scintillation counting.
Uptake of the probe substrate in control cells provided background activity values for all data points. […]
The amount of translocated probe substrate was determined for each well in cpm or RFU. Relative activities were calculated from the equation: […]
In uptake transporter inhibition assays, the IC50 (μM) was calculated, where applicable. […]

OATP1B1 = target: T2, OATP1B1 (Homo sapiens, UniProt Q9Y6L6); assay: Substrate statement, OATP1B1
T2 sequence (Q9Y6L6 1-691): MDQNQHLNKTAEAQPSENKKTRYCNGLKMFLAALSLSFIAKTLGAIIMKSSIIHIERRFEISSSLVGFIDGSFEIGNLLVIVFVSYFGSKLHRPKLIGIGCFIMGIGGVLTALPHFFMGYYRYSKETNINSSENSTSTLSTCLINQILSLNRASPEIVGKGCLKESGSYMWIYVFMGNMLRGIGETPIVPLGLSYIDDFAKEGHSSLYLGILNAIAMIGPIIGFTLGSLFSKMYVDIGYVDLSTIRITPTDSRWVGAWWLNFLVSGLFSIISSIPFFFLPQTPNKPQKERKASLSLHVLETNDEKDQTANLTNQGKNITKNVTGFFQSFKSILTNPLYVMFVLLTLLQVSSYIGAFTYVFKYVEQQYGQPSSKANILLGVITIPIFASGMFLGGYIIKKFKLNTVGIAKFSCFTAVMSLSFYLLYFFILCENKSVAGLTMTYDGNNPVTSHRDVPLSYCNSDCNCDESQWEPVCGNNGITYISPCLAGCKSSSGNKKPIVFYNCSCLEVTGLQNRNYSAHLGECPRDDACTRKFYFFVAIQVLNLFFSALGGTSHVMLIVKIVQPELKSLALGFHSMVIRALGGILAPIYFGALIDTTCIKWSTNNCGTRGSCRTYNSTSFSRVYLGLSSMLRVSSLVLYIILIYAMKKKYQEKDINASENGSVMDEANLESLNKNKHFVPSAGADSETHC

[O-][n+]1cccc(C(Cl)=NOCC(O)CN2CCCCC2)c1 (stereo not shown) [Arimoclomol, N-[2-hydroxy-3-(1-piperidinyl)-propoxy]-pyridine-1-oxide-3-carboximidoyl chloride]
Substrate of the transporter (in words) (human OCT2 [1]): not a substrate
Fold accumulation (human OCT2 [1]; 1 μM, 2 min): 0.95
Fold accumulation (human OCT2 [1]; 1 μM, 20 min): 1.28
Fold accumulation (human OCT2 [1]; 10 μM, 2 min): 0.87
Fold accumulation (human OCT2 [1]; 10 μM, 20 min): 1.05
Fold accumulation (human OCT2 [1]; 1 and 10 μM, 2 and 20 min): < 2
Substrate (human OCT2 [1]; Table 2): NIO
Inhibitor of the OCT2 transporter (in words) (human OCT2 [2]): inhibitor
IC50 (human OCT2 [2]; OCT2-mediated metformin (10 μM) uptake, CHO cells): 10 µM and 9.72 µM
Substrate of the transporter (in words) (OATP1B1): not a substrate
